Results from patent publication US10214511B2, “Quinazolines as potassium ion channel inhibitors” (Bristol-Myers Squibb Company, priority 2009, dated 2019).
Where two headings read alike, the source gives them in different places.

Columns and labels:
JAK2 = JAK2 (Homo sapiens (Human), UniProt O60674); assay: Caliper Kinase Assay; assay type: biochemical; details: ATP at Km, peptide 1.5 uM; read-out: LLE_JAK2 (IC50)
Text: (§1) IC50 values were derived by non-linear regression analysis.

TAK1 = TAK1 (Homo sapiens (Human), UniProt O43318); assay: Caliper Kinase Assay; assay type: biochemical; details: ATP at Km, peptide 1.5 uM; read-out: LLE_TAK1 (IC50)
Sequence of TAK1 (O43318 1-303): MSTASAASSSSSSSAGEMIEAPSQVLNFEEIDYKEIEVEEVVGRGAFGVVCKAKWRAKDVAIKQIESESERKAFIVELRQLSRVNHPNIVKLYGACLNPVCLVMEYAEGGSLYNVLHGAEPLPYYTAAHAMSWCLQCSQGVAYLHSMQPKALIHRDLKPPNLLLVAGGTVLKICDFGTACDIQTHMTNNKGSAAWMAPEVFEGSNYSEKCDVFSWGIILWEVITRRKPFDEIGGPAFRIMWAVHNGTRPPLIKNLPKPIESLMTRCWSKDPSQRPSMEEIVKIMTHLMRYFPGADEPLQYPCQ
Text: as §1

Kv 1.5 = Kv 1.5 (Homo sapiens (Human), UniProt P22460); assay: Kv1.5 (IKur) inhibition assay; assay type: cell-based
Sequence of Kv 1.5 (P22460 whole entry): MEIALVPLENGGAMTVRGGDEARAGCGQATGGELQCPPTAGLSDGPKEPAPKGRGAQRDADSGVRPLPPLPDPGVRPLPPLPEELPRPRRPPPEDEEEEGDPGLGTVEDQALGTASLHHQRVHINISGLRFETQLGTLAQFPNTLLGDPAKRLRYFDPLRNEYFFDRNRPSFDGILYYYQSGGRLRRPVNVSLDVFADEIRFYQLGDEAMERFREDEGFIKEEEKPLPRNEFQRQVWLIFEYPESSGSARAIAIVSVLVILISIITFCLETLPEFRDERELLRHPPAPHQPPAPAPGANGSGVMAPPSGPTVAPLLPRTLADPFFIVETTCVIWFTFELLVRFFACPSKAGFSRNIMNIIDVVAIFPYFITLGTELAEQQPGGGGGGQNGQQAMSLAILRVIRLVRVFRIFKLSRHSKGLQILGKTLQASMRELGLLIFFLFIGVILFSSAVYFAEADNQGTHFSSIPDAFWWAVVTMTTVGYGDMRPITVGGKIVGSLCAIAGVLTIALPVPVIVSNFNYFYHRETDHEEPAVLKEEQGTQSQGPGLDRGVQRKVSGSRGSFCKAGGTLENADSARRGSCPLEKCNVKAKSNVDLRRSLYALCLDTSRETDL
Text: Assays to determine the degree of activity of a compound as an IKur inhibitor are well known in the art and are described in references such as J. Gen. Physiol., 101(4):513-543 (April 1993), and Br. J. Pharmacol., 115(2):267-274 (May 1995).
Assays to determine the degree of activity of a compound as an inhibitor of other members of the Kv1 subfamily are also well known in the art. For example, inhibition of Kv1.1, Kv1.2 and Kv1.3 can be measured using procedures described by Grissmer, S. et al., Mol. Pharmacol., 45(6):1227-1234 (June 1994); inhibition of Kv1.4 can be measured using procedures described by Petersen, K. R. et al., Pflugers Arch., 437(3):381-392 (February 1999); inhibition of Kv1.6 can be measured using procedures described by Bowlby, M. R. et al., J. Neurophysiol. 73(6):2221-2229 (June 1995); and inhibition of Kv1.7 can be measured using procedures described by Kalman, K. et al., J. Biol. Chem., 273(10):5851-5857 (Mar. 6, 1998).
Compounds of the present invention were tested in one of the assays described immediately above and the results shown in Table 2 below were obtained.

[1] = Brain penetration across species; assay type: in vivo
JAK3 = JAK3 (Homo sapiens (Human), UniProt P52333); assay: Caliper Kinase Assay; assay type: biochemical; details: ATP at Km, peptide 1.5 uM; read-out: LLE_JAK3 (IC50)
GSK3B = GSK3B (Homo sapiens (Human), UniProt P49841); assay: Caliper Kinase Assay; assay type: biochemical; details: ATP at Km, peptide 1.5 uM; read-out: LLE GSK3B (IC50)
Experimental: (§2) In addition, compounds of the present invention, such as particular compounds disclosed in the preceding examples, were evaluated for their effectiveness as inhibitors of kinase receptor activity.
(§3) The analyses were performed in U-bottom 384-well plates. The final assay volume was 30 μl prepared from 15 μl additions of enzyme and substrates (fluoresceinated peptide and ATP) and test compounds in assay buffer (20 mM HEPES pH 7.4, 10 mM MgCl2, 0.015% Brij35 and 4 mM DTT). The reaction was initiated by the combination of purified protein kinase with substrates and test compounds. The reaction was incubated at room temperature for 60 min. and terminated by adding 30 μl of 35 mM EDTA to each sample. The reaction mixture was analyzed on the Caliper LABCHIP® 3000 (Caliper, Hopkinton, Mass.) by electrophoretic separation of the fluorescent substrate and phosphorylated product. Inhibition data were calculated by comparison to no enzyme control reactions for 100% inhibition and vehicle-only reactions for 0% inhibition. The ATP was used at a final concentration equivalent to the Km and the peptide substrate concentration was 1.5 μM. […] Compounds were dissolved at 10 mM in dimethylsulfoxide (DMSO) and evaluated at eleven concentrations. IC50 values were derived by non-linear regression analysis.

TPL2 = TPL2 (Homo sapiens (Human), UniProt P41279); assay: Caliper Kinase Assay; assay type: biochemical; details: ATP at Km, peptide 1.5 uM; read-out: LLE_TPL2 CAL (IC50)
Sequence of TPL2 (P41279 whole entry, species assumed): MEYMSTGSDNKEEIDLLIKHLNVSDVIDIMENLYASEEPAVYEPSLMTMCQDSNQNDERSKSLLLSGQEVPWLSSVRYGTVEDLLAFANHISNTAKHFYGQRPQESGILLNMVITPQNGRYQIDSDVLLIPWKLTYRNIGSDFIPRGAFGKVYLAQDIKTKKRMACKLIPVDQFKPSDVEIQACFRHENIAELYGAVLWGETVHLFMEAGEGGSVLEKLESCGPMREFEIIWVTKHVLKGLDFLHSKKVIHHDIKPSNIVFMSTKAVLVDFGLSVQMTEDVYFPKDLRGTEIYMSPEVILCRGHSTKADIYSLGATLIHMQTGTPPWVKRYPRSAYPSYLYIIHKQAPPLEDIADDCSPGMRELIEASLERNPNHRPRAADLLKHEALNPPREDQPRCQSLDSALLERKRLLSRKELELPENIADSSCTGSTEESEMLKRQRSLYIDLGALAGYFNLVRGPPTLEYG
Experimental: as §2, §3

IRAK-4 = IRAK-4 (Homo sapiens (Human), UniProt Q9NWZ3); assay: Caliper Kinase Assay; assay type: biochemical; details: ATP at Km, peptide 1.5 uM; read-out: LLE IRAK-4 (IC50)
Experimental: as §2, §3

BTK = BTK (Homo sapiens (Human), UniProt Q06187); assay: Caliper Kinase Assay; assay type: biochemical; details: ATP at Km, peptide 1.5 uM; read-out: LLE_BTK (IC50)
Sequence of BTK (Q06187 whole entry, species assumed): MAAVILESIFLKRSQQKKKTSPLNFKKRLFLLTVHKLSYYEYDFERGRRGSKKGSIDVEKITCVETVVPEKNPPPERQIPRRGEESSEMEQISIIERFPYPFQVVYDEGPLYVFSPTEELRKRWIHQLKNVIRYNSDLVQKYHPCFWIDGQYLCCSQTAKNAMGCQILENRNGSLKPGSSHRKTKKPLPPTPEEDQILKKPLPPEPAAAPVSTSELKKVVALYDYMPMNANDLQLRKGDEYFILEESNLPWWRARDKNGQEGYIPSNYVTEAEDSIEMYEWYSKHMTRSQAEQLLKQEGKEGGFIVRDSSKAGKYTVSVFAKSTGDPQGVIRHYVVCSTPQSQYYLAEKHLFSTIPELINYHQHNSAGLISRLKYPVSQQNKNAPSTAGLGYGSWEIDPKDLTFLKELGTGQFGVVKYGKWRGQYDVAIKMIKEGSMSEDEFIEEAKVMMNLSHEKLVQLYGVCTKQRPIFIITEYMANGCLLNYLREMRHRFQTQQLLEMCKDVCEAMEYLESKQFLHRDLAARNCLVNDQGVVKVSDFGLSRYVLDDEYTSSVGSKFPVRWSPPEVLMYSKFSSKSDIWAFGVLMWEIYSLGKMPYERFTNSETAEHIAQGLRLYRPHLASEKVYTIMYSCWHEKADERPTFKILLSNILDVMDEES

ABL1 = ABL1 (Homo sapiens (Human), UniProt P00519); assay: Caliper Kinase Assay; assay type: biochemical; details: read-out: LLE_ABL1 (% INH, 50 uM)
Text: as §1

Flt3 = Flt3 (Homo sapiens (Human), UniProt P36888); assay: Caliper Kinase Assay; assay type: biochemical; details: ATP at Km, peptide 1.5 uM; read-out: LLE Flt3 (IC50)
Text: as §1

IGF1R = IGF1R (Homo sapiens (Human), UniProt P08069); assay: Caliper Kinase Assay; assay type: biochemical; details: ATP at Km, peptide 1.5 uM
Sequence of IGF1R (P08069 31-1367, species assumed): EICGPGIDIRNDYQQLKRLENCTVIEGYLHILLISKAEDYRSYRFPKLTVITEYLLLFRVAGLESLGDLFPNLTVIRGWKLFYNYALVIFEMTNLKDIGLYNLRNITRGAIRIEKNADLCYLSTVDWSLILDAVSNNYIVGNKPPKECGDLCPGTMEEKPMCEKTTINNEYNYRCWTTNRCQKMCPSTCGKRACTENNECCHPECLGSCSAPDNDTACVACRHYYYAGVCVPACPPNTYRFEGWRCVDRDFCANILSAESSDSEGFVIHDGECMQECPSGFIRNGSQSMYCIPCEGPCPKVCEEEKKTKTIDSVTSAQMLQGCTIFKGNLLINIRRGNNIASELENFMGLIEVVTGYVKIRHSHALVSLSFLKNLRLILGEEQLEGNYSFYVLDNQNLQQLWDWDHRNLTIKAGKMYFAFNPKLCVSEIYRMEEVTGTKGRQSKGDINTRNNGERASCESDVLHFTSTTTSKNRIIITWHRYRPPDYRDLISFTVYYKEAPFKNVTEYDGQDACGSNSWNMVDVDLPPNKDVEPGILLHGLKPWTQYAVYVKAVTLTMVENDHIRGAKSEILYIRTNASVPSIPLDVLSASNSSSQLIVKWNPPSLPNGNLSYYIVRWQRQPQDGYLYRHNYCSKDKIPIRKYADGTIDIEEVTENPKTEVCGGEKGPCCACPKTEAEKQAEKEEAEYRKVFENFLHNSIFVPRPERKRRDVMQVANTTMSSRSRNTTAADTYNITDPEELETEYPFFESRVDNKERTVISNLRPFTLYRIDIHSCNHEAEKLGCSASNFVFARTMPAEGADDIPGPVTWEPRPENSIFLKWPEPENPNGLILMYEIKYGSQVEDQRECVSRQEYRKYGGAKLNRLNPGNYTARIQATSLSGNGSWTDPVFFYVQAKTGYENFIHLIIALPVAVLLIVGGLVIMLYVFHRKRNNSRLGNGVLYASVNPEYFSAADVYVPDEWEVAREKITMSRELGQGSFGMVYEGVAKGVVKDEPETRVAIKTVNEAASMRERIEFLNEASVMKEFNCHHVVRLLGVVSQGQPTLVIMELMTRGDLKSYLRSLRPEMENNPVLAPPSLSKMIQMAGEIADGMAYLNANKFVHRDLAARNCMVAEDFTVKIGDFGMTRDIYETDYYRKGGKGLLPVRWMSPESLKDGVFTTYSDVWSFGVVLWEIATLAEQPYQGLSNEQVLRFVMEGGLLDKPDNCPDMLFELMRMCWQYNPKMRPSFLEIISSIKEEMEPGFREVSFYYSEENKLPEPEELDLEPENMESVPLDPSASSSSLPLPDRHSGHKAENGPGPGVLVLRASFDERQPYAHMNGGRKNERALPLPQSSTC
Text: as §1

PIM1 = PIM1 (Homo sapiens (Human), UniProt P11309); assay: Caliper Kinase Assay; assay type: biochemical; details: ATP at Km, peptide 1.5 uM
Sequence of PIM1 (P11309 whole entry, species assumed): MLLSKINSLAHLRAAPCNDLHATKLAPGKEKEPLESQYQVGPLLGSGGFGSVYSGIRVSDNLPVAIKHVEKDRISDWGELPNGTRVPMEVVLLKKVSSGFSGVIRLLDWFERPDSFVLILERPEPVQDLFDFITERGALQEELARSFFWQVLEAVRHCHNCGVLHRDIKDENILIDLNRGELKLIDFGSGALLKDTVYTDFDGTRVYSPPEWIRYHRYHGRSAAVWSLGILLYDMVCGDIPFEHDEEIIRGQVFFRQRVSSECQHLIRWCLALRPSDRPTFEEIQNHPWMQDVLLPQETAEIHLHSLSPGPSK
Text: as §1

CK2A2 = CK2A2 (Homo sapiens (Human), UniProt P19784); assay: Caliper Kinase Assay; assay type: biochemical; details: ATP at Km, peptide 1.5 uM; read-out: LLE_CK2A2 (IC50)

Sequence of JAK2 (O60674 whole entry, species assumed): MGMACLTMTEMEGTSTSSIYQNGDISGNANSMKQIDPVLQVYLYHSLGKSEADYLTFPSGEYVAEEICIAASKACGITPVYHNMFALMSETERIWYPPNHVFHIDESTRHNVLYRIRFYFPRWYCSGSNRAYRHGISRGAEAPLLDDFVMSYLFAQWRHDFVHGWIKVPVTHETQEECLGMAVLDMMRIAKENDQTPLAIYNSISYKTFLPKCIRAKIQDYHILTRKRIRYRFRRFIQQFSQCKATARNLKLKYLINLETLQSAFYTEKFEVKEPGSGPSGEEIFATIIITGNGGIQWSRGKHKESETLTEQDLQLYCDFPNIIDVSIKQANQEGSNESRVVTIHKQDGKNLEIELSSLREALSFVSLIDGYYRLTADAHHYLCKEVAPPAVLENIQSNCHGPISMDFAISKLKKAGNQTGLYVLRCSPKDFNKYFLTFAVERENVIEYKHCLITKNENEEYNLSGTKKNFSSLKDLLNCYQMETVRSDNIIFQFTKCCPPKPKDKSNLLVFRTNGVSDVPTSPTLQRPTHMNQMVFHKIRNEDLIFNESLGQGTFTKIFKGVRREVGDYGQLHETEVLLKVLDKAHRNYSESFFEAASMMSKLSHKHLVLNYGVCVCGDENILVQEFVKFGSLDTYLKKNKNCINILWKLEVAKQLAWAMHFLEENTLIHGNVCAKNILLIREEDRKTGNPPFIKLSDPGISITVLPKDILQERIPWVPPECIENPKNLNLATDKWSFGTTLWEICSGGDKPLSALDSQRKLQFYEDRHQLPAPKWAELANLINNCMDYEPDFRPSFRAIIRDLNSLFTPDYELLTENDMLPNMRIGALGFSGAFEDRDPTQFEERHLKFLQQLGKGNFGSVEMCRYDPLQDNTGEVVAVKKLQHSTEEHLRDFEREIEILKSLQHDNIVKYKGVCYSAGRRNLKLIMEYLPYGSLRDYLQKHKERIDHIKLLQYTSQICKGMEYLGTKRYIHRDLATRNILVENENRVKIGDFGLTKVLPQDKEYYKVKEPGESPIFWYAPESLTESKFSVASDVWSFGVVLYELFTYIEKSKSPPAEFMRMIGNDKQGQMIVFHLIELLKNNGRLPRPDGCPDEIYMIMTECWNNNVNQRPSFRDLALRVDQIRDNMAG

SMILES	inhibition at 0.3 µM (Kv 1.5)	other results
c1ccc(-c2cccc3nc(-c4cncnc4)nc(NCc4ccccn4)c23)cc1 [Example 1, 5-Phenyl-N-(pyridin-2-ylmethyl)-2-(pyrimidin-5-yl)quinazolin-4-amine]		IC50 (JAK2): 23.9 µM; IC50 (TAK1): ≥ 50 µM
NS(=O)(=O)c1cncc(-c2nc(NCc3ccccn3)c3c(-c4ccccc4)cccc3n2)c1 [Example 7, 5-(5-Phenyl-4-(pyridin-2-ylmethylamino)quinazolin-2-yl)pyridine-3-sulfonamide]	95.7%	IC50 (JAK2): ≥ 50 µM; brain penetration [1]: surprisingly low degree of brain penetration across species
Clc1nc(NCc2ccccn2)c2c(-c3ccccc3)cccc2n1 [Example 19]		IC50 (JAK3): 23.8 µM; IC50 (GSK3B): 5.15 µM; IC50 (TPL2): 11.9 µM; IC50 (IRAK-4): 18.7 µM; IC50 (BTK): 19.2 µM; IC50 (JAK2): 17.8 µM; inhibition at 50 µM (ABL1): 32.4%; IC50 (Flt3): 10.1 µM; IC50 (IGF1R; first section of Table 4, read-out: LLE IGF1R (IC50)): 17.6 µM; IC50 (IGF1R; second section of Table 4, read-out: LLE_IGF1R (IC50)): 17.6 µM; IC50 (PIM1; first section of Table 4, read-out: LLE PIM1 (IC50)): 33.8 µM; IC50 (PIM1; third section of Table 4, read-out: LLE_PIM1 (IC50)): 33.8 µM; IC50 (CK2A2): 25.5 µM
Cc1nc(NCc2ccccn2)c2c(-c3ccccc3)cccc2n1 [Example 22]	60.4%	
COc1cncc(-c2nc(NCc3ccccn3)c3c(-c4ccccc4)cccc3n2)c1 [Example 29]	65.3%	
c1ccc(-c2cccc3nc(-c4ccncc4)nc(NCc4ccccn4)c23)cc1 [Example 31]	98.2%	
Nc1ccc(-c2nc(NCc3ccccn3)c3c(-c4ccccc4)cccc3n2)cn1 [Example 32]	53.1%	
Clc1nc(Nc2nccs2)c2c(-c3ccccc3)cccc2n1 [Example 38]	61.3%	
c1ccc(CNc2nc(-c3cncnc3)nc3cccc(-c4ccccc4)c23)cc1 [Example 40]	59.8%	
Clc1nc(NCc2ccccc2)c2c(-c3ccccc3)cccc2n1 [Example 42]	96.4%	
c1ccc(-c2cccc3nc(-c4ccc5cc[nH]c5c4)nc(NCc4ccccn4)c23)cc1 [Example 46]	98.7%	
c1ccc(-c2nc(NCc3ccccn3)c3c(-c4ccccc4)cccc3n2)cc1 [Example 50]	96.1%	
FC(F)(F)c1ccc(-c2cccc3nc(Cl)nc(NCc4ccccn4)c23)cc1 [Example 97]	98.7%	
COc1ccc(-c2nc(NCc3ccccn3)c3c(-c4ccccc4)cccc3n2)cn1 [Example 105]	98.7%	

More lines, main results first:

inhibition at 0.3 µM (Kv 1.5)	SMILES	other results
50.3%	c1ccc(CNc2nc(-c3cncnc3)nc3cccc(-c4cccc(N5CCOCC5)c4)c23)nc1 [Example 107]	
98.1%	CN(C)c1ccc(-c2cccc3nc(Cl)nc(NCc4ccccn4)c23)cc1 [Example 108]	
51.8%	Fc1ccc(CNc2nc(Cl)nc3cccc(-c4ccccc4)c23)nc1 [Example 110]	
61.5%	Fc1ccc(CNc2nc(-c3cncnc3)nc3cccc(-c4ccccc4)c23)nc1 [Example 111]	
96.2%	CC(Nc1nc(Cl)nc2cccc(-c3ccccc3)c12)c1ccccc1 (stereo not drawn) [Example 130]	
98.4%	COc1cccc(CNc2nc(Cl)nc3cccc(-c4ccccc4)c23)c1 [Example 134]	
55.6%	FC(F)(F)c1ccccc1CNc1nc(Cl)nc2cccc(-c3ccccc3)c12 [Example 137]	
